Patent publication US20030176477A1 (priority 2000, published 2003)
Read-outs that look alike come from different tables or passages of the source.

Columns and labels:
[1] = tested on: Pyricularia oryzae; assay: whole plant or invertebrate; type: in vivo; conditions: 168 h, read-out: control value
[2] = tested on: Pyricularia oryzae; assay: whole plant or invertebrate; type: in vivo; conditions: foliar, 168 h, read-out: control value

SMILES | melting point [°C] | pest or weed control at 500 ppm [1] [%] | pest or weed control at 500 ppm [2] [%]
O=CN(CNC(=O)c1snc(Cl)c1Cl)Cc1ccccc1 | 102 to 103 | > 80 | > 80
N#CC(=CNNC(=O)c1snc(Cl)c1Cl)c1ccccc1 | 212 to 214 | – | –
CN(NC=C(C#N)c1ccccc1)C(=O)c1snc(Cl)c1Cl | 130 to 139 | – | –
O=C(NCC(O)CO)c1snc(Cl)c1Cl (stereo not shown) | 68 to 72 | – | –
CC1(C)OCC(CNC(=O)c2snc(Cl)c2Cl)O1 (stereo not shown) | 132 to 133 | – | –
N#C/C(=N\c1ccc(C(F)(F)F)cc1)NC(=O)c1snc(Cl)c1Cl | 151 to 153 | – | –
O=C(S)c1snc(Cl)c1Cl | 79 to 80 | – | –
Cc1c(-c2ccccc2)[nH]n(C(=O)c2snc(Cl)c2Cl)c1=O | 190 to 191 | – | –
COCNC(=O)c1snc(Cl)c1Cl | 79 to 87 | – | –
O=C(NC(Sc1nnc(-c2ccccc2)s1)C(F)(F)F)c1snc(Cl)c1Cl (stereo not shown) | 124 to 127 | – | –
O=C(NCO)c1snc(Cl)c1Cl [compound 45, N-hydroxymethyl-3,4-dichloro-5-isothiazolecarboxamide] | – | – | > 80
O=C(NC(O)C(F)(F)F)c1snc(Cl)c1Cl (stereo not shown) [compound 48, N-(2,2,2-trifluoro-1-hydroxyethyl)-3,4-dichloro-5-isothiazolecarboxamide] | 90 to 93 | – | > 80
CCOC(NC(=O)c1snc(Cl)c1Cl)C(F)(F)F (stereo not shown) [compound 49, N-(2,2,2-trifluoro-1-ethoxyethyl)-3,4-dichloro-5-isothiazolecarboxamide] | 99 to 101 | > 80 | –
O=C(Nc1ccc(C(F)(F)F)cc1)OCNC(=O)c1snc(Cl)c1Cl [compound 58, N-[N-(4-trifluoromethylphenyl)-carbamoyloxymethyl]-3,4-dichloro-5-isothiazolecarboxamide] | 117 to 119 | > 80 | –
O=C(NCSc1ccc(Cl)cc1)c1snc(Cl)c1Cl [compound 65, N-(4-chlorophenylthiomethyl)-3,4-dichloro-5-isothiazolecarboxamide] | 106 to 107 | – | > 80
O=C(NCS(=O)(=O)c1ccccc1)c1snc(Cl)c1Cl [compound 71, N-phenylsulfonylmethyl-3,4-dichloro-5-isothiazolecarboxamide] | 175 to 176 | – | > 80
Cn1nnnc1SCNC(=O)c1snc(Cl)c1Cl [compound 76, N-(1-methyl-5-tetrazolethiomethyl)-3,4-dichloro-5-isothiazolecarboxamide] | 176 to 177 | > 80 | > 80
Cc1cc(C)n(COC(=O)c2snc(Cl)c2Cl)n1 [compound 98, 3,5-dimethylpyrazol-1-ylmethyl 3,4-dichloro-5-isothiazolecarboxylate] | 80 to 81 | – | > 80
CCCC(NC(C)=O)NC(=O)c1snc(Cl)c1Cl (stereo not shown) [compound 112, N-[1-(acetamido)butyl]-3,4-dichloro-5-isothiazolecarboxamide] | 162 to 165 | > 80 | > 80
Cn1nnnc1SCN(CNC(=O)c1snc(Cl)c1Cl)C(=O)c1snc(Cl)c1Cl [compound 154, N-[(3,4-dichloro-5-isothiazolecarboxamido)-methyl]-N-(1-methyl-5-tetrazolethiomethyl)-3,4-dichloro-5-isothiazolecarboxamide] | 185 to 188 | > 80 | –
O=C(c1snc(Cl)c1Cl)n1[nH]c(-c2ccc(Cl)cc2)cc1=O [compound 288] | > 250 | > 80 | –
CN(C)/C=N/C(=O)c1snc(Cl)c1Cl [compound 290, N-dimethylaminomethylidene-3,4-dichloro-5-iso thiazolecarboxamide] | 196 to 197 | > 80 | –
